Experimental data taken from ChEMBL document CHEMBL1131216, “Anhydrolide macrolides. 2. Synthesis and antibacterial activity of 2,3-anhydro-6-O-methyl 11,12-carbazate erythromycin A analogues” (1998).
Converted amounts (≈) assume the structure as drawn.

Columns and labels:
Assay type in all cases: functional
Staphylococcus aureus [1] = assay: In vitro antibacterial activity of 6538P strain of Gram positive bacteria Staphylococcus aureus
Streptococcus pyogenes [2] = assay: In vitro antibacterial activity of PIU2584 strain of Gram positive bacteria Streptococcus pyogenes
Streptococcus pneumoniae [3] = assay: In vitro antibacterial activity of ATCC 6303 strain of Gram positive bacteria Streptococcus pneumoniae
Staphylococcus aureus [4] = assay: In vitro antibacterial activity of A-5278 strain of Gram positive bacteria Staphylococcus aureus
Streptococcus pyogenes [5] = assay: In vitro antibacterial activity of EES61 strain of Gram positive bacteria Streptococcus pyogenes
Streptococcus pneumoniae [6] = assay: In vitro antibacterial activity of 5979 strain of Gram positive bacteria Streptococcus pneumoniae
Haemophilus influenzae = assay: In vitro antibacterial activity of DILL strain of Gram negative bacteria Haemophilus influenzae
Streptococcus pneumoniae [7] = assay: In vitro antibacterial activity of 5649 strain of Gram positive bacteria Streptococcus pneumoniae
Staphylococcus aureus [8] = assay: In vitro antibacterial activity of A5177 strain of Gram positive bacteria Staphylococcus aureus
Streptococcus pyogenes [9] = assay: In vitro antibacterial activity of 930 strain of Gram positive bacteria Streptococcus pyogenes

Structure (SMILES)	MIC (Staphylococcus aureus [1])	MIC (Streptococcus pyogenes [2])	MIC (Streptococcus pneumoniae [3])	MIC (Staphylococcus aureus [4])	MIC (Streptococcus pyogenes [5])	MIC (Streptococcus pneumoniae [6])	MIC (Haemophilus influenzae)	MIC (Streptococcus pneumoniae [7])	MIC (Staphylococcus aureus [8])	MIC (Streptococcus pyogenes [9])
CC[C@H]1OC(=O)/C(C)=C/[C@H](C)[C@@H](O[C@@H]2O[C@H](C)C[C@H](N(C)C)[C@H]2O)[C@@](C)(OC)C[C@@H](C)C(=O)[C@H](C)[C@H]2N(NCc3ccc(C(F)(F)F)cc3)C(=O)O[C@]12C	0.78 µg/mL (≈ 1.01 µM)	2 µg/mL (≈ 2.6 µM)	0.06 µg/mL (≈ 0.0779 µM)	100 µg/mL (≈ 130 µM)	0.06 µg/mL (≈ 0.0779 µM)	16 µg/mL (≈ 20.8 µM)	16 µg/mL (≈ 20.8 µM)	2 µg/mL (≈ 2.6 µM)	0.78 µg/mL (≈ 1.01 µM)	16 µg/mL (≈ 20.8 µM)
CC[C@H]1OC(=O)/C(C)=C/[C@H](C)[C@@H](O[C@@H]2O[C@H](C)C[C@H](N(C)C)[C@H]2O)[C@@](C)(OC)C[C@@H](C)C(=O)[C@H](C)[C@H]2N(NCc3ccccn3)C(=O)O[C@]12C	0.39 µg/mL (≈ 0.555 µM)	1 µg/mL (≈ 1.42 µM)	0.06 µg/mL (≈ 0.0854 µM)	> 100 µg/mL	0.06 µg/mL (≈ 0.0854 µM)	> 128 µg/mL	8 µg/mL (≈ 11.4 µM)	1 µg/mL (≈ 1.42 µM)	0.39 µg/mL (≈ 0.555 µM)	> 128 µg/mL
CC[C@H]1OC(=O)/C(C)=C/[C@H](C)[C@@H](O[C@@H]2O[C@H](C)C[C@H](N(C)C)[C@H]2O)[C@@](C)(OC)C[C@@H](C)C(=O)[C@H](C)[C@H]2N(NCc3ccc(N(C)C)c4ccccc34)C(=O)O[C@]12C	3.1 µg/mL (≈ 3.9 µM)	2 µg/mL (≈ 2.52 µM)	0.5 µg/mL (≈ 0.629 µM)	100 µg/mL (≈ 126 µM)	0.25 µg/mL (≈ 0.314 µM)	32 µg/mL (≈ 40.3 µM)	16 µg/mL (≈ 20.1 µM)	2 µg/mL (≈ 2.52 µM)	3.1 µg/mL (≈ 3.9 µM)	16 µg/mL (≈ 20.1 µM)
CC[C@H]1OC(=O)[C@H](C)[C@@H](O[C@H]2C[C@@](C)(OC)[C@@H](O)[C@H](C)O2)[C@H](C)[C@@H](O[C@@H]2O[C@H](C)C[C@H](N(C)C)[C@H]2O)[C@](C)(O)C[C@@H](C)C(=O)[C@H](C)[C@@H](O)[C@]1(C)O [ERYTHROMYCIN]	0.2 µg/mL (≈ 0.273 µM)	32 µg/mL (≈ 43.6 µM)	0.06 µg/mL (≈ 0.0818 µM)	> 100 µg/mL	0.03 µg/mL (≈ 0.0409 µM)	> 128 µg/mL	4 µg/mL (≈ 5.45 µM)	16 µg/mL (≈ 21.8 µM)	3.1 µg/mL (≈ 4.22 µM)	> 128 µg/mL
CC[C@H]1OC(=O)/C(C)=C/[C@H](C)[C@@H](O[C@@H]2O[C@H](C)C[C@H](N(C)C)[C@H]2O)[C@@](C)(OC)C[C@@H](C)C(=O)[C@H](C)[C@H]2N(NCc3ccc(SC)cc3)C(=O)O[C@]12C	0.39 µg/mL (≈ 0.521 µM)	1 µg/mL (≈ 1.34 µM)	0.03 µg/mL (≈ 0.0401 µM)	> 100 µg/mL	0.03 µg/mL (≈ 0.0401 µM)	64 µg/mL (≈ 85.6 µM)	8 µg/mL (≈ 10.7 µM)	0.5 µg/mL (≈ 0.668 µM)	–	64 µg/mL (≈ 85.6 µM)
CC[C@H]1OC(=O)/C(C)=C/[C@H](C)[C@@H](O[C@@H]2O[C@H](C)C[C@H](N(C)C)[C@H]2O)[C@@](C)(OC)C[C@@H](C)C(=O)[C@H](C)[C@H]2N(NCCCc3ccccc3N)C(=O)O[C@]12C	0.39 µg/mL (≈ 0.524 µM)	1 µg/mL (≈ 1.34 µM)	0.03 µg/mL (≈ 0.0403 µM)	> 100 µg/mL	0.06 µg/mL (≈ 0.0805 µM)	> 128 µg/mL	16 µg/mL (≈ 21.5 µM)	–	0.39 µg/mL (≈ 0.524 µM)	128 µg/mL (≈ 172 µM)
CC[C@H]1OC(=O)/C(C)=C/[C@H](C)[C@@H](O[C@@H]2O[C@H](C)C[C@H](N(C)C)[C@H]2O)[C@@](C)(OC)C[C@@H](C)C(=O)[C@H](C)[C@H]2N(NCCCn3cnc(-c4ccccc4)c3)C(=O)O[C@]12C	0.2 µg/mL (≈ 0.251 µM)	1 µg/mL (≈ 1.26 µM)	0.03 µg/mL (≈ 0.0377 µM)	> 100 µg/mL	0.03 µg/mL (≈ 0.0377 µM)	> 128 µg/mL	8 µg/mL (≈ 10.1 µM)	0.5 µg/mL (≈ 0.628 µM)	–	128 µg/mL (≈ 161 µM)
CC[C@H]1OC(=O)/C(C)=C/[C@H](C)[C@@H](O[C@@H]2O[C@H](C)C[C@H](N(C)C)[C@H]2O)[C@@](C)(OC)C[C@@H](C)C(=O)[C@H](C)[C@H]2N(NCCCc3ccc(N)cc3)C(=O)O[C@]12C	0.39 µg/mL (≈ 0.524 µM)	1 µg/mL (≈ 1.34 µM)	0.03 µg/mL (≈ 0.0403 µM)	> 100 µg/mL	0.03 µg/mL (≈ 0.0403 µM)	> 128 µg/mL	4 µg/mL (≈ 5.37 µM)	1 µg/mL (≈ 1.34 µM)	–	> 128 µg/mL
CC[C@H]1OC(=O)/C(C)=C/[C@H](C)[C@@H](O[C@@H]2O[C@H](C)C[C@H](N(C)C)[C@H]2O)[C@@](C)(OC)C[C@@H](C)C(=O)[C@@H](C)[C@H]2N(NCCCc3ccccc3)C(=O)O[C@]12C	12.5 µg/mL (≈ 17.1 µM)	8 µg/mL (≈ 11 µM)	2 µg/mL (≈ 2.74 µM)	25 µg/mL (≈ 34.2 µM)	2 µg/mL (≈ 2.74 µM)	16 µg/mL (≈ 21.9 µM)	> 128 µg/mL	8 µg/mL (≈ 11 µM)	–	8 µg/mL (≈ 11 µM)
CC[C@H]1OC(=O)/C(C)=C/[C@H](C)[C@@H](O[C@@H]2O[C@H](C)C[C@H](N(C)C)[C@H]2O)[C@@](C)(OC)C[C@@H](C)C(=O)[C@H](C)[C@H]2N(NCc3c(O)ccc4ccccc34)C(=O)O[C@]12C	0.2 µg/mL (≈ 0.26 µM)	0.5 µg/mL (≈ 0.651 µM)	0.03 µg/mL (≈ 0.0391 µM)	100 µg/mL (≈ 130 µM)	0.06 µg/mL (≈ 0.0781 µM)	32 µg/mL (≈ 41.7 µM)	8 µg/mL (≈ 10.4 µM)	0.25 µg/mL (≈ 0.326 µM)	–	32 µg/mL (≈ 41.7 µM)
CC[C@H]1OC(=O)/C(C)=C/[C@H](C)[C@@H](O[C@@H]2O[C@H](C)C[C@H](N(C)C)[C@H]2O)[C@@](C)(OC)C[C@@H](C)C(=O)[C@H](C)[C@H]2N(NCCCc3cccc(N)c3)C(=O)O[C@]12C	0.2 µg/mL (≈ 0.268 µM)	1 µg/mL (≈ 1.34 µM)	0.03 µg/mL (≈ 0.0403 µM)	> 100 µg/mL	0.03 µg/mL (≈ 0.0403 µM)	> 128 µg/mL	4 µg/mL (≈ 5.37 µM)	–	0.2 µg/mL (≈ 0.268 µM)	> 128 µg/mL
